# Laboratory results as given in publication PMC12751012, “Nanoscale Direct-to-Biology Optimization and Structural Insights into Selective S. aureus TrmD Inhibitors” (Journal of Medicinal Chemistry, 2025).
# Molecular target: T1, S. aureus TrmD (Staphylococcus aureus, UniProt Q2FZ43)
# T1 construct: made in house; host or cells: E. coli BL21
# T1 sequence (Q2FZ43 1-245): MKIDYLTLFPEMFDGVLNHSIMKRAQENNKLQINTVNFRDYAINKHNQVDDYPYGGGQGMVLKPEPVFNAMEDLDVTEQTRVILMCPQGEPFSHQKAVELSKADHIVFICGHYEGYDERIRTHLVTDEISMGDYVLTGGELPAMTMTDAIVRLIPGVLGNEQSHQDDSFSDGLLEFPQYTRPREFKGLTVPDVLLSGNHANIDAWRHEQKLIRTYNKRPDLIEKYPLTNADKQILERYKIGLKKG
# Assay: nanoSAR direct-to-biology FP displacement screening of crude triazoles
# Format: binding
# Details: crude triazole at 1 μM, assuming full conversion, 500 nM TrmD, 10 nM tracer 4; for inhibition at 1 µM: read-out: % displaced tracer
# Method in brief: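 Crude CuAAC triazoles from alkyne 7 and 320 diverse azides were screened by FP displacement of 10 nM tracer 4 from 500 nM S. aureus TrmD. Buffer was 40 mM Tris HCl, 100 mM NaCl, 10 mM MgCl2, 5% glycerol, pH 7.5.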
Compound,inhibition at 1 µM,% displaced tracer
"O=c1[nH]cnc2[nH]cc(-c3cn(Cc4ccc(-n5cccn5)cc4)nn3)c12 [Compound 02E09, O=C1NC=NC=2NC=C(C=3N=NN(C3)Cc4ccc(N5N=CC=C5)cc4)C12]",62%,–
"CC(C)(C)OC(=O)NC[C@@]1(Cn2cc(-c3c[nH]c4nc[nH]c(=O)c34)nn2)CC12CCC2 [Compound 02E10, O=C(OC(C)(C)C)NC[C@@]1(C2(C1)CCC2)CN3N=NC(C=4C=5C(=O)NC=NC5NC4)=C3]",23%,–
"C[C@@H](C(=O)N1CCCC1)n1cc(-c2c[nH]c3nc[nH]c(=O)c23)nn1 [Compound 02E11, O=C1NC=NC=2NC=C(C=3N=NN(C3)[C@H](C(=O)N4CCCC4)C)C12]",20%,–
"O=C(c1ncon1)n1cc(-c2c[nH]c3nc[nH]c(=O)c23)nn1 [Compound 02E12, O=C(N1N=NC(C=2C=3C(=O)NC=NC3NC2)=C1)C4=NOC=N4]",1.83%,–
"CC(C)(C)O[C@H]1C[C@@H](n2cc(-c3c[nH]c4nc[nH]c(=O)c34)nn2)C1 [Compound 02F01, O=C1NC=NC=2NC=C(C=3N=NN(C3)[C@@H]4C[C@H](OC(C)(C)C)C4)C12]",21%,–
"O=C(Cn1cc(-c2c[nH]c3nc[nH]c(=O)c23)nn1)N1CCCCC1 [Compound 02F02, O=C1NC=NC=2NC=C(C=3N=NN(C3)CC(=O)N4CCCCC4)C12]",32%,–
"O=c1[nH]cnc2[nH]cc(-c3cn(-c4ccccc4Cl)nn3)c12 [Compound 02F03, Clc1c(N2N=NC(C=3C=4C(=O)NC=NC4NC3)=C2)cccc1]",22%,–
"O=C1NC[C@@H](Cn2cc(-c3c[nH]c4nc[nH]c(=O)c34)nn2)O1 [Compound 02F04, O=C1O[C@H](CN2N=NC(C=3C=4C(=O)NC=NC4NC3)=C2)CN1]",45%,–
"COC(=O)c1cncc(-n2cc(-c3c[nH]c4nc[nH]c(=O)c34)nn2)c1 [Compound 02F05, O=C(OC)c1cncc(N2N=NC(C=3C=4C(=O)NC=NC4NC3)=C2)c1]",11%,–
"CC(C)Cn1cc(-c2c[nH]c3nc[nH]c(=O)c23)nn1 [Compound 02F06, O=C1NC=NC=2NC=C(C=3N=NN(C3)CC(C)C)C12]",1.22%,–
"NC(=O)c1csc(Cn2cc(-c3c[nH]c4nc[nH]c(=O)c34)nn2)n1 [Compound 02F07, S1C(=NC(C(=O)N)=C1)CN2N=NC(C=3C=4C(=O)NC=NC4NC3)=C2]",91%,–
"O=c1[nH]cnc2[nH]cc(-c3cn(Cc4ncoc4C4CCC4)nn3)c12 [Compound 02F08, O=C1NC=NC=2NC=C(C=3N=NN(C3)CC=4N=COC4C5CCC5)C12]",61%,–
"C[C@H](N)Cn1cc(-c2c[nH]c3nc[nH]c(=O)c23)nn1 [Compound 02F09, O=C1NC=NC2=C1C(C3=CN(C[C@@H](N)C)N=N3)=CN2]",–,26%
"O=c1[nH]cnc2[nH]cc(-c3cn(-c4cc(F)ccc4F)nn3)c12 [Compound 02F10, Fc1c(N2N=NC(C=3C=4C(=O)NC=NC4NC3)=C2)cc(F)cc1]",15%,–
"O=C(NCCn1cc(-c2c[nH]c3nc[nH]c(=O)c23)nn1)C(F)(F)F [Compound 02F11, FC(F)(F)C(=O)NCCN1N=NC(C=2C=3C(=O)NC=NC3NC2)=C1]",41%,–
"NCCOCCn1cc(-c2c[nH]c3nc[nH]c(=O)c23)nn1 [Compound 02F12, O=C1NC=NC=2NC=C(C=3N=NN(C3)CCOCC[NH3+])C12]",39%,–
"O=c1[nH]cnc2[nH]cc(-c3cn(CC4CCC=CCC4)nn3)c12 [Compound 02G01, O=C1NC=NC=2NC=C(C=3N=NN(C3)CC4CCC=CCC4)C12]",71%,–
"O=c1[nH]cnc2[nH]cc(-c3cn(-c4cccc(Cl)c4-c4nnn[nH]4)nn3)c12 [Compound 02G02, Clc1c(c(N2N=NC(C=3C=4C(=O)NC=NC4NC3)=C2)ccc1)C=5[N-]N=NN5]",15%,–
"O=c1[nH]cnc2[nH]cc(-c3cn(-c4ccc(CCO)cc4)nn3)c12 [Compound 02G03, O=C1NC=NC=2NC=C(C=3N=NN(c4ccc(cc4)CCO)C3)C12]",15%,–
"O=c1[nH]cnc2[nH]cc(-c3cn(CC4CC(F)(F)C4)nn3)c12 [Compound 02G04, F[C@@]1(F)C[C@@H](CN2N=NC(C=3C=4C(=O)NC=NC4NC3)=C2)C1]",15%,–
"O=c1[nH]cnc2[nH]cc(-c3cn(Cc4nc5ccccc5o4)nn3)c12 [Compound 02G05, O=C1NC=NC=2NC=C(C=3N=NN(C3)CC=4Oc5c(N4)cccc5)C12]",38%,–
"COC[C@H](O)Cn1cc(-c2c[nH]c3nc[nH]c(=O)c23)nn1 [Compound 02G06, O=C1NC=NC=2NC=C(C=3N=NN(C3)C[C@@H](O)COC)C12]",13%,–
"O=c1[nH]cnc2[nH]cc(-c3cn([C@H](CC4CCCCC4)c4ncccn4)nn3)c12 [Compound 02G07, O=C1NC=NC=2NC=C(C=3N=NN(C3)[C@@H](c4ncccn4)CC5CCCCC5)C12]",30%,–

Compound,inhibition at 1 µM,% displaced tracer
"CC(C)(C)OC(=O)N[C@@]12CC[C@@H](C[C@H]1n1cc(-c3c[nH]c4nc[nH]c(=O)c34)nn1)C2 [Compound 02G08, O=C(OC(C)(C)C)N[C@@]12[C@H](N3N=NC(C=4C=5C(=O)NC=NC5NC4)=C3)C[C@@H](C1)CC2]",12%,–
"Cc1ccccc1Cn1cc(-c2c[nH]c3nc[nH]c(=O)c23)nn1 [Compound 02G09, O=C1NC=NC=2NC=C(C=3N=NN(C3)Cc4c(cccc4)C)C12]",75%,–
"N#Cc1cnn(CCn2cc(-c3c[nH]c4nc[nH]c(=O)c34)nn2)c1 [Compound 02G10, O=C1NC=NC=2NC=C(C=3N=NN(C3)CCN4N=CC(C#N)=C4)C12]",38%,–
"O=c1[nH]cnc2[nH]cc(-c3cn([C@@H]4CCCc5cccnc54)nn3)c12 [Compound 02G11, O=C1NC=NC=2NC=C(C=3N=NN(C3)[C@H]4c5ncccc5CCC4)C12]",18%,–
"N[C@H]1C[C@@H](n2cc(-c3c[nH]c4nc[nH]c(=O)c34)nn2)C1 [Compound 02G12, O=C1NC=NC=2NC=C(C=3N=NN(C3)[C@@H]4C[C@H]([NH3+])C4)C12]",31%,–
"CNC(=O)CCn1cc(-c2c[nH]c3nc[nH]c(=O)c23)nn1 [Compound 02H01, O=C1NC=NC=2NC=C(C=3N=NN(C3)CCC(=O)NC)C12]",21%,–
"N#Cc1cc(Cl)ccc1-n1cc(-c2c[nH]c3nc[nH]c(=O)c23)nn1 [Compound 02H02, Clc1cc(C#N)c(N2N=NC(C=3C=4C(=O)NC=NC4NC3)=C2)cc1]",0%,–
"O=c1[nH]cnc2[nH]cc(-c3cn(Cc4ccc(F)cc4F)nn3)c12 [Compound 02H03, Fc1c(ccc(F)c1)CN2N=NC(C=3C=4C(=O)NC=NC4NC3)=C2]",49%,–
"O=c1[nH]cnc2[nH]cc(-c3cn(C4CCNCC4)nn3)c12 [Compound 02H04, O=C1NC=NC=2NC=C(C=3N=NN(C3)C4CC[NH2+]CC4)C12]",28%,–
"O=c1[nH]cnc2[nH]cc(-c3cn(CC(F)(F)c4ccccc4)nn3)c12 [Compound 02H05, FC(F)(c1ccccc1)CN2N=NC(C=3C=4C(=O)NC=NC4NC3)=C2]",46%,–
"O=c1[nH]cnc2[nH]cc(-c3cn(C[C@H](O)Cc4cccc(F)c4)nn3)c12 [Compound 02H06, Fc1cc(ccc1)C[C@@H](O)CN2N=NC(C=3C=4C(=O)NC=NC4NC3)=C2]",27%,–
"O=c1[nH]cnc2[nH]cc(-c3cn(CCCN4CCSCC4)nn3)c12 [Compound 02H07, S1CC[NH+](CC1)CCCN2N=NC(C=3C=4C(=O)NC=NC4NC3)=C2]",59%,–
"COc1ccc(-n2cc(-c3c[nH]c4nc[nH]c(=O)c34)nn2)cc1 [Compound 02H08, O=C1NC=NC=2NC=C(C=3N=NN(c4ccc(OC)cc4)C3)C12]",9%,–
"C[C@H](c1ccccc1Cl)n1cc(-c2c[nH]c3nc[nH]c(=O)c23)nn1 [Compound 02H09, Clc1c(cccc1)[C@H](N2N=NC(C=3C=4C(=O)NC=NC4NC3)=C2)C]",44%,–
"O=c1[nH]cnc2[nH]cc(-c3cn([C@H]4CCn5cccc5C4)nn3)c12 [Compound 02H10, O=C1NC=NC=2NC=C(C=3N=NN(C3)[C@@H]4CC=5N(C=CC5)CC4)C12]",24%,–
"C[C@H](c1ccc(Cl)cc1)n1cc(-c2c[nH]c3nc[nH]c(=O)c23)nn1 [Compound 02H11, Clc1ccc(cc1)[C@H](N2N=NC(C=3C=4C(=O)NC=NC4NC3)=C2)C]",41%,–
"CN(CCn1cc(-c2c[nH]c3nc[nH]c(=O)c23)nn1)Cc1cccc(F)c1 [Compound 02H12, Fc1cc(ccc1)C[N@H+](CCN2N=NC(C=3C=4C(=O)NC=NC4NC3)=C2)C]",65%,–
"CS(=O)(=O)c1cc(Cn2cc(-c3c[nH]c4nc[nH]c(=O)c34)nn2)cc(C(F)(F)F)c1 [Compound 03A01, S(=O)(=O)(c1cc(cc(c1)CN2N=NC(C=3C=4C(=O)NC=NC4NC3)=C2)C(F)(F)F)C]",63%,–
"CN(C)CCn1cc(-c2c[nH]c3nc[nH]c(=O)c23)nn1 [Compound 03A02, O=C1NC=NC=2NC=C(C=3N=NN(C3)CC[NH+](C)C)C12]",44%,–
"O=C(Cn1cc(-c2c[nH]c3nc[nH]c(=O)c23)nn1)NCc1ccccc1 [Compound 03A03, O=C1NC=NC=2NC=C(C=3N=NN(C3)CC(=O)NCc4ccccc4)C12]",36%,–
"O=c1[nH]cnc2[nH]cc(-c3cn(-c4ccc(S(F)(F)(F)(F)F)cc4)nn3)c12 [Compound 03A04, S(F)(F)(F)(F)(F)c1ccc(N2N=NC(C=3C=4C(=O)NC=NC4NC3)=C2)cc1]",16%,–
"O=C1NCCCC[C@H]1n1cc(-c2c[nH]c3nc[nH]c(=O)c23)nn1 [Compound 03A05, O=C1NC=NC=2NC=C(C=3N=NN(C3)[C@H]4C(=O)NCCCC4)C12]",40%,–
"N#CCC1(Cn2cc(-c3c[nH]c4nc[nH]c(=O)c34)nn2)CC1 [Compound 03A06, O=C1NC=NC=2NC=C(C=3N=NN(C3)CC4(CC#N)CC4)C12]",65%,–
